Results taken from ChEMBL document CHEMBL1150514, “Synthesis and HIV-1 reverse transcriptase inhibition properties of two new methylenephosphonate analogues of 3-azido-3-deoxythymidine-5-triphosphate” (Bioorg Med Chem Lett, 1995).

The molecules below were run against Human immunodeficiency virus type 1 reverse transcriptase (Human immunodeficiency virus 1, UniProt Q72547) (assay: Inhibitory activity against HIV-1 reverse transcriptase).
`Cc1cn([C@H]2C[C@H](N=[N+]=[N-])[C@@H](CO[P@](=O)(O)O[P@](=O)(O)OP(=O)(O)O)O2)c(=O)[nH]c1=O` [ZIDOVUDINE TRIPHOSPHATE] showed an IC50 of 0.043 µM.
For `Cc1cn(C2CC(N=[N+]=[N-])C(COP(=O)(O)CCCP(=O)(O)O)O2)c(=O)[nH]c1=O` (stereo not drawn), the IC50 was 39 µM.
With `Cc1cn(C2CC(N=[N+]=[N-])C(COP(=O)(O)CP(=O)(O)CP(=O)(O)O)O2)c(=O)[nH]c1=O` (stereo not drawn) the IC50 was 48 µM.
